The text below walks through data of patent US20230398051A1, “Anti-Microbial Skin-Care Composition Comprising Beta-Glucan and Natural Oil” (LANTMÄNNEN OATS AB, priority 2020, published 2023).

The test system of one assay is L. monocytogenes. The experiment in a line: Log reduction according to EN 1276. The assay is classed as cell-based.
In a further assay the test system is S. typhimurium. As to the kind of experiment: Log reduction according to EN 1276. It counts as cell-based.
The test system of a further assay is E. coli. The experiment in a line: Log reduction according to EN 1276. It counts as cell-based. The source says:
(§1) As shown in the Examples herein, the skin-care composition is active against bacteria and due to its content of hydrogen peroxide and lactate/lactic it is contemplated to be active against viruses as well, i.e. functioning as an anti-microbial composition. It has been shown that a synergistic effect between hydrogen peroxide and lactic acid in bacteria such as E. coli, P. aeruginosa, E. hirae, S. aureus, L. monocytogenes and S. typhimurium, see the following tables: […]

Another assay relates to S. aureus. As to the kind of experiment: Log reduction according to EN 1276. It counts as cell-based.
From the text: as §1

For a further assay, the system named is P. aeruginosa. As to the kind of experiment: Log reduction according to EN 1276. The assay is classed as cell-based.
A further assay concerns E. hirae. As to the kind of experiment: Log reduction according to EN 1276. It counts as cell-based.
The test system of another assay is bacteria, viruses. Particulars: 0.5% hydrogen peroxide; cited from earlier work.
The subject of another assay is spores. As to conditions: cited from earlier work.
In a further assay the test system is bacteria. As to conditions: cited from earlier work.

Molecules are shown by their SMILES.

As for `OO` [1% H2O2, hydrogen peroxide], the “Log reduction according to EN 1276” value was determined as 0.6 in the assay with L. monocytogenes and 0.5 in the assay with S. typhimurium.

For the compound `CC(O)C(=O)O` (stereo not shown) [1% LA, lactic acid], the “Log reduction according to EN 1276” value is 3.8 with L. monocytogenes and greater than 5 in the assay on S. typhimurium.

In the case of `CC(O)C(=O)O` (stereo not shown) [1% LA, pH 3, lactic acid], the “Log reduction according to EN 1276” value was 2.2 with L. monocytogenes and greater than 5 in the assay with S. typhimurium.

For `OO` [3% H2O2, hydrogen peroxide], the “Log reduction according to EN 1276” value is listed as greater than 5 in the assay with E. coli, less than 1 in the assay with S. aureus, greater than 5 with P. aeruginosa and 0.1 in the assay with E. hirae.

`OO` [hydrogen peroxide]: in the assay on bacteria, viruses, the “time in which bactericidal and virucidal activity was demonstrated” value was 1 min. For the same compound, the “concentration that will work against most spores” value in the assay with spores is reported as 3%.

For the compound `CC(O)C(=O)O` (stereo not shown) [lactic acid], in the assay on bacteria, the “concentration regarded as bactericidal” value is no less than 0.25 % w/w.
